# Values joined by “and” are separate entries in the source; they are usually repeats but may differ in a detail not shown here. Equal values may be shown once.
# System: peripheral blood lymphocytes collected from swine exposed to ASFV
# Assay type: cell-based
row,Substance,Number of Spots
1,1111 (RTDFVWVADL) [compound 1111],13
2,1120 (SLPDVSTLPY) [compound 1120],13
3,1127 (RALKMYEDYY) [compound 1127],12
4,1129 (IMDDLVEEY) [compound 1129],14
5,1139 (ALANTSANY) [compound 1139],12
6,1141 (ILAEYVYSY) [compound 1141],18
7,1150 (KSQDTLHRF) [compound 1150],12
8,1151 (NLSEVVTAY) [compound 1151],16
9,1159 (MAEIRFLSM) [compound 1159],12
10,1172 (RCQHHAFSY) [compound 1172],12
11,1184 (LSDLRNFSF) [compound 1184],16
12,1187 (FSEHTKFFSY) [compound 1187],15 and 16
13,1188 (VSNILHSVF) [compound 1188],13
14,1196 (KEMQDYSLTF) [compound 1196],17
15,1204 (MQDYSLTF) [compound 1204],17
16,1205 (QDYSLTFLLK) [compound 1205],17
17,1207 (DYSLTFLLKK) [compound 1207],17
18,1212 (TFLLKKRMEL) [compound 1212],19
19,1227 (ETYARLSSY) [compound 1227],12
20,1228 (SSYNRSLLH) [compound 1228],15
21,1264 (RINRNYYPYYI) [compound 1264],12
22,1265 (INRNYYPYY) [compound 1265],12
23,1278 (NYYPYYIY) [compound 1278],16
24,1279 (YPYYIYKIF) [compound 1279],12
25,1287 (VHFNAHFKPY) [compound 1287],14
26,1288 (HFNAHFKPY) [compound 1288],16

row,Substance,Number of Spots
1,1295 (SQMGAHGQL) [compound 1295],17
2,1296 (HGQLQTFPR) [compound 1296],16
3,1345 (RVRFSLIRV) [compound 1345],16
4,1347 (LMSALKWPI) [compound 1347],17
5,1348 (LMSALKWPIEY) [compound 1348],12
6,1370 (GAMMITFAL) [compound 1370],14
7,1372 (NVSRAREFY) [compound 1372],12
8,1375 (RAREFYISW) [compound 1375],15
9,1379 (VVSASAINF) [compound 1379],13
10,1388 (LVYELPAPF) [compound 1388],14
11,1390 (QQMLTRHIY) [compound 1390],12
12,1394 (SSFKCWTCHLY) [compound 1394],14
13,1400 (KESAETIYTF) [compound 1400],14
14,1413 (ISSMSVSTFW) [compound 1413],12
15,1436 (NKANKAFYI) [compound 1436],13
16,1437 (KANKAFYINH) [compound 1437],12 and 16
17,1454 (INHLYKFLL) [compound 1454],12 and 18
18,1459 (KITSVTEFY) [compound 1459],19
19,1461 (YTLLSPLQSY) [compound 1461],13 and 17
20,1468 (ITYLNNMGY) [compound 1468],13
21,1472 (KVDLPYHLM) [compound 1472],16
22,1483 (KTIKHYEQL) [compound 1483],12
23,1484 (GTSYLRMAY) [compound 1484],14
24,1488 (STQFMIQYF) [compound 1488],13
25,1491 (MIADAINQEF) [compound 1491],13
26,1499 (AVNLLRQTF) [compound 1499],14

row,Substance,Number of Spots
1,1501 (ALDLSLIGFY) [compound 1501],14
2,1503 (KTDPNFKNL) [compound 1503],13
3,1507 (ATVSAIELEY) [compound 1507],13
4,1509 (TLAQVFESF) [compound 1509],17
5,1510 (FTDNAPAGHYY) [compound 1510],15
6,1511 (RSLSNFQAL) [compound 1511],17
7,1512 (QIYKTLLEY) [compound 1512],21
8,1514 (EAAELYFRL) [compound 1514],15
9,1517 (ATKKALIHF) [compound 1517],13
10,1519 (FGMMNQTNY) [compound 1519],13
11,1523 (STAQVHLDF) [compound 1523],14
12,1528 (KTYTLLTKPY) [compound 1528],13
13,1531 (MVFNQLIASY) [compound 1531],12
14,1543 (NIYNYDYSF) [compound 1543],12
15,1544 (GSLYPTQFDY) [compound 1544],14
16,1556 (QVVFHAGSLY) [compound 1556],13
17,1566 (ARIYAGQGY) [compound 1566],14
18,1567 (QAQEEWNMIL) [compound 1567],13
19,1571 (KTVQHIEQY) [compound 1571],14
20,1573 (KVIRAHNFI) [compound 1573],12
21,1580 (SNMKQFCKI) [compound 1580],12
22,1619 (IDFDPLVTFY) [compound 1619],16
23,1627 (GTDLYQSAM) [compound 1627],12
24,1628 (SAMLEFKKF) [compound 1628],12
25,1630 (AMLEFKKFF) [compound 1630],12
26,1631 (FTQITRQTF) [compound 1631],12

row,Substance,Number of Spots
1,1633 (ITRQTFMDI) [compound 1633],14
2,1648 (RTLMDQPTY) [compound 1648],14
3,1649 (TLMDQPTY) [compound 1649],18
4,1651 (RFSRPGNNY) [compound 1651],17
5,1658 (AFINSTDFLY) [compound 1658],12
6,1685 (NINRLMPYF) [compound 1685],12
7,1693 (EVYAPYMHY) [compound 1693],12
8,1701 (YTGIQSPLF) [compound 1701],13
9,1706 (RLQTPIPVY) [compound 1706],13
10,1718 (SSELHFYVF) [compound 1718],15
11,1736 (VTQRNQNYF) [compound 1736],13
12,1749 (TLDFDRMWY) [compound 1749],15
13,1750 (SMSYFDGKTEY) [compound 1750],17
14,1753 (YFDTFANAM) [compound 1753],13
15,1759 (VQLANSSVYY) [compound 1759],15
16,1761 (SVYHVQEEL) [compound 1761],12
17,1767 (LLDTNTNFY) [compound 1767],13 and 21
18,1783 (GMQDGIRWFY) [compound 1783],13
19,1810 (KTIFNNVRY) [compound 1810],13
20,1814 (YTIHYSMPY) [compound 1814],17
21,1823 (YTKFFNCPF) [compound 1823],25
22,1824 (SMMDFERVHY) [compound 1824],14
23,1828 (RSQTECGPY) [compound 1828],14
24,1830 (SVMALAKMY) [compound 1830],12
25,1835 (KILGLLLAY) [compound 1835],21
26,1836 (GKTMPVEFYY) [compound 1836],17

row,Substance,Number of Spots
1,1840 (SLANHTVKYY) [compound 1840],14
2,1841 (SMFKHFDNM) [compound 1841],17
3,1852 (HTLIISPEF) [compound 1852],15
4,1864 (SMPMSMIGPY) [compound 1864],13
5,1873 (KLYTAALGVY) [compound 1873],12
6,1875 (ISPRISYQF) [compound 1875],12
7,1880 (FLNAYAHKL) [compound 1880],12
8,1912 (KQFEMFNMVY) [compound 1912],12
9,1923 (RISSELISY) [compound 1923],13
10,1941 (AIEEEDIQF) [compound 1941],12
11,1950 (ELVDHIFNY) [compound 1950],16
12,1952 (LSKNIAAEY) [compound 1952],17
13,1955 (SSAELYRKM) [compound 1955],14
14,1982 (NAFEWIHFV) [compound 1982],14
15,1986 (KINQRSFSF) [compound 1986],13
16,1989 (RMHIYETNLY) [compound 1989],14
17,1991 (KQELSRLIY) [compound 1991],29
18,2037 (MCGKRNCPLY) [compound 2037],12
19,2038 (CGKRNCPLYY) [compound 2038],12
20,2075 (KSCYPLVFI) [compound 2075],12
21,2092 (KAKIAFPPEY) [compound 2092],17
22,2118 (MMQTAIQKNYF) [compound 2118],13
23,2125 (TAIQKNYFR) [compound 2125],14
24,2126 (TAIQKNYFRF) [compound 2126],13
25,2127 (AIQKNYFRF) [compound 2127],15

# — patent publication US20220105170A1 (priority 2019, published 2022)
